Values quoted from earlier work, collected in patent US12357627B2, “Pharmaceutical compositions of cabozantinib” (AZURITY PHARMACEUTICALS, INC., priority 2021, dated 2025).
≈ marks a conversion by molar mass, not a printed value. Read-outs that look alike come from different tables or passages of the source.

How the values were obtained:
[1] = mass balance study
[2] = high-fat meal relative to fasted conditions, healthy subjects, single oral dose

- solubility (at pH>4): practically insoluble
- solubility (in 0.01N HCl): 110 µg/mL (≈ 219 µM)
- solubility (in water): practically insoluble
- administered cabozantinib renally excreted [1]: at least 27%
- increase of AUC [2]: 57%
- increase of Cmax [2]: 41%
SMILES: COc1cc2nccc(Oc3ccc(NC(=O)C4(C(=O)Nc5ccc(F)cc5)CC4)cc3)c2cc1OC [Cabozantinib]
